Source: patent US20150265666A1, “BOTANICAL ANTIMICROBIAL COMPOSITIONS” (THE TRUSTEES OF COLUMBIA UNIVERSITY IN THE CITY OF NEW YORK, priority 2012, published 2015)
“Also recorded” adds a separate entry of the source.

Tests used:
S. aureus [1] = experiment: Rapid kill method (10^8 cfu/ml S. aureus), 15 seconds, oral rinse base; format: cell-based
Protocol: Synergistic effect of botanical extracts and biguanides (Rapid kill method (108 S. aureus)): The antimicrobial effect of an oral rinse base, containing the ingredients described in table 10 below, were tested against a high concentration of bacteria. In a sterile culture tube, 0.1 ml of S. aureus (10^8 cfu/ml) was treated with 0.9 ml of test mouthrinse for 15 seconds. The reaction was stopped with Drug neutralizing Fluid (DNF) and then further diluted with the same media. 0.5 ml of the dilution was then plated on Tripticase Soy Agar (TSA) and incubated at 37° C. overnight. The colony counts were determined and the log 10 reduction from the control (phosphate-buffered saline (PBS) inoculated with the same culture) was calculated.

S. aureus [2] = experiment: ASTM E 2783-11 protocol, 15 seconds, ingredients in Base A (Example 16); format: cell-based; conditions: for Log reduction compared to control: ingredients in Base A; for synergistic activity with chlorhexidine (in words): Experiment 1, Base A
Protocol: The antimicrobial efficacy of a composition comprising biguanides and fennel oil, thyme oil/thymol and/or vanilla oil was tested against S. aureus (10^7 cfu/ml). […] In-vitro study Test organism: S. aureus (10^7 cfu/ml) […] These plates were incubated at 37° C. for 24 hours and the colony counts (cfu)/ml were determined.

[3] = use as oral antiseptic; cited from earlier work
[4] = system: murine fibroblasts cell lines; conditions: cited from earlier work
[5] = system: human dennal, gingival and osteoblastic cell lines; conditions: cited from earlier work
[6] = 0.12% solutions, oral decontamination prior to mechanical intubation; cited from earlier work
[7] = system: methicillin-resistant Staphylococcus aureus (“MRSA”); experiment: MRSA Rapid-Kill Assay (tube-dilution, US FDA-TFM, 15 second exposure); format: cell-based
P. aeruginosa = experiment: Agar-plate method: sample spread on TSA, 1 hr, then inoculated; log10 reduction; format: cell-based; conditions: Example 3
Protocol: For oral care products, PHMB is preferred because BAC can produce mucosal irritation. PHMB is effective against gram negative bacteria. Therefore P. aeruginosa which is a gram negative organism was used in these tests. An agar-plate method was used/0.5 ml of the test sample was spread on TSA plates and for control PBS was used in the plate. These plates were incubated for 1 hr in the incubator at temperature 37±1° C. After 1 hr, the plates were taken out of the incubator and inoculated with 0.5 ml of 1×10^3 cfu/ml culture of P. aeruginosa. The plates were incubated for 18-24 hrs at 37±1° C. The antibacterial activity was determined by calculating the difference in log 10 colony-forming units (cfu) between control and test samples (i.e., log 10 reduction).

[8] = Experiment 1, S. aureus 10^7 cfu/ml, T, B, F, V each 0.1 % w/w, CHG 0.12 % w/w
[9] = Experiment 2, S. aureus 10^7 cfu/ml, each 0.1 % w/w

## N=C(NCCCCCCNC(=N)NC(=N)Nc1ccc(Cl)cc1)NC(=N)Nc1ccc(Cl)cc1 [CHX (0.06%)]
S. aureus [1]; Table 10, in oral rinse base, control growth 7.29
  Log10 Growth: 5.60 log10
S. aureus [1]; Table 10, in oral rinse base, reduction from control (PBS)
  Log10 Reduction: 1.69 log10

## [H]/N=C(\N/C(=N/[H])NCCCCCCNC(=N)NC(=N)Nc1ccc(Cl)cc1)Nc1ccc(Cl)cc1 [Chlorhexidine (CHG)]
S. aureus [2]; [8]
  Log reduction compared to control: 0.73 log

## Cc1ccc(C(C)C)c(O)c1 [T (Thymol)]
S. aureus [2]; [8]
  Log reduction compared to control: 1.29 log
S. aureus [2]; [9]
  Log reduction compared to control: 1.29 log

## [H]/N=C(\N/C(=N/[H])NCCCCCCNC(=N)NC(=N)Nc1ccc(Cl)cc1)Nc1ccc(Cl)cc1 [chlorhexidine]
S. aureus [1]; Example 10
  synergistic antibacterial activity of botanical extracts and biguanides (in words): did not show such synergism
[3]
  adverse effects: irritation of the oral mucosa, discoloration of teeth and altered taste perception
S. aureus [2]; 10^7 cfu/ml
  synergistic activity with chlorhexidine (in words): combination of either fennel seed oil and thymol or fennel seed oil, thymol and vanilla oil with chlorhexidine also exhibited synergistic activity
S. aureus [2]; 10^7 cfu/ml, listed as Chlorhexidine
  synergistic activity with chlorhexidine (in words): exhibits synergistic activity when combined with either thymol or basil oil
[4]
  cytotoxicity: cytotoxic
[5]
  cytotoxicity: cytotoxic
[6]
  risk of acquiring VAP: can reduce the risk of acquiring VAP

## benzalkonium chloride [BAC]
[7]; Example 1, actives in base formulation
  antibacterial activity, effect of combining actives (in words): enhanced the activity of essential oil mixtures containing thymol
[7]; Example 4
  antibacterial activity, effect of combining actives (in words): enhances the activity of essential oils (CN+LG+T)
[7]; Table 1, MRSA, conc. active agent 0.13 % w/w
  Log reduction from control growth: 0.05 log10
[7]; Table 2, MRSA, conc. active agent 0.13 % w/w
  Log reduction from control growth: 0.05 log10
[7]; Table 5A, MRSA, conc. active agent 0.6 % w/w
  Log reduction from control growth: 0.5 log10

## pentanediol
P. aeruginosa
  antibacterial activity, effect of combining actives (in words): enhanced the activity of low concentrations of essential oils and lemon extract

## polyhexamethylene biguanide [PHMB]
[7]; Example 1, PHMB at 0.06%
  antibacterial activity, effect of combining actives (in words): showed synergistic activity with essential oils
[7]; Table 1, MRSA, conc. active agent 0.012 % w/w
  Log reduction from control growth: 0.4 log10
[7]; Table 1, MRSA, conc. active agent 0.06 % w/w
  Log reduction from control growth: 3.1 log10
[7]; Table 2, MRSA, conc. active agent 0.012 % w/w
  Log reduction from control growth: 0.4 log10
[7]; Table 5B, MRSA, conc. active agent 0.06 % w/w
  Log reduction from control growth: 4.0 log10
P. aeruginosa
  antibacterial activity, effect of combining actives (in words): enhanced the activity of low concentrations of essential oils and lemon extract
S. aureus [2]; Experiment 2, Base A, 10^7 cfu/ml
  synergistic activity with PHMB (in words): exhibited synergistic activity when combined with either thymol or vanilla oil; also recorded: combination of either fennel seed oil and thymol or fennel seed oil, thymol and vanilla oil with PHMB also exhibited synergistic activity
S. aureus [2]; [9]
  Log reduction compared to control: 1.96 log
